In series [1] the test system is Mäusen. Briefly: Orienting acute toxicity after a single oral dose. The settings on record: in vivo, po, 250 mg/kg. An excerpt: (§1) Die orientierende akute Toxizität der zu untersuchenden Substanzen wurde orientierend an Gruppen von je 5 Mäusen nach oraler Gabe einer Einzeldosis bestimmt (Beobachtungszeit: 14 Tage): […]
A short description of series [2]: Orienting acute toxicity after a single oral dose. The note with it: mouse, in vivo, read-out: Orientierende aktute Toxizität.
Text: as §1

Where [3] appears, read: mice, groups of 5, oral single dose, observation time 14 days.

Like-named read-outs stand apart in the source and are kept apart here. Bounds are passed on as bounds.

The text below walks through data of patent publication EP0134922A1, “2-Piperazino-pteridines, processes for their preparation and medicaments containing these compounds” (Dr. Karl Thomae GmbH, priority 1983, dated 1985).

The molecule `c1ccc(CSc2nc3c(N4CCOCC4)nc(N4CCNCC4)nc3nc2N2CCOCC2)cc1` [Substanz A, 6-Benzylthio-4,7-dimorpholino-2-piperazino-pteridin] showed a Tieren gestorben in series [1] of 0 von 5. The LD50 at 336 h in series [2] (setting [3]) was greater than 250 mg/kg.
Regarding `CN(C)c1nc2nc(N3CCNCC3)nc(N(C)C)c2nc1Cl` [Substanz B, 6-Chlor-4,7-bis-(dimethylamino)-2-piperazino-pteridin], the Tieren gestorben in series [1] is listed as 0 von 5. Moreover, the LD50 at 336 h in series [2] (po) is greater than 250 mg/kg.
The molecule `CN(C)c1nc2nc(N3CCNCC3)nc(N(C)C)c2nc1SCc1ccccc1` [Substanz C, 6-Benzylthio-4,7-bis-(dimethylamino)-2-piperazino-pteridin] had a Tieren gestorben in series [1] of 0 von 5. For the same molecule, the LD50 at 336 h in series [2] (setting [3]) is greater than 250 mg/kg.
`CSc1nc2c(N3CC[S+]([O-])CC3)nc(N3CCNCC3)nc2nc1NCc1ccccc1` [Substanz D, 7-Benzylamino-6-methylthio-4-(1-oxidothiomorpholino)-2-piperazino-pteridin] gave a Tieren gestorben in series [1] of 0 von 5. Moreover, the LD50 at 336 h in series [2] (setting [3]) was greater than 250 mg/kg.
In turn, `CN(C)c1nc(N2CCNCC2)nc2nc(NCc3ccccc3)c(Cl)nc12` [Substanz E, 6-Chlor-2-piperazino-4-dimethyl-amino-7-benzylamino-pteridin] showed a Tieren gestorben in series [1] of 0 von 5. Also, the LD50 at 336 h in series [2] (po) is greater than 250 mg/kg.
